Results published in US6274568A, “Compounds for altering cell surface sialic acids and methods of use therefor” (priority 1999, dated 2001).
“Also recorded” adds a separate entry of the source.

Legend:
[1] = tested on: myelin-associated glycoprotein (MAG); conditions: cited from earlier work
MAG-Fc chimera = test: MAG-Fc binding to precursor-treated NG108-15 cells by flow cytometry; assay type: cell-based
Experimental: Flow cytometry was used to test binding of a soluble MAG-Fc chimera to precursor-treated and control NG108-15 cells. A chimeric protein consisting of the entire extracellular domain of MAG fused via a three amino acid bridge (TGK) to the human Fc domain was produced using the "pIgPlus" vector (Novagen, Madison, Wis.). A PCR fragment coding for the extracellular domain of MAG was prepared using MAG in pCDM8 as template (Yang et al., 1996a), the T7 5' primer […] (SEQ ID NO:1) and […] (SEQ ID NO:2) as the 3' primer. The fragment was cut with BamHI and HindIII and directionally cloned into the pIgPlus vector. The resulting construct was sequenced to confirm its identity, transfected into COS cells, and the resulting MAG-Fc chimera was purified from the culture medium using Protein G affinity chromatography.
For MAG binding studies, NG108-15 cells were cultured in the presence of sialic acid precursors for the indicated times, then were released from culture dishes using hypertonic Ca^2+ /Mg^2+ -free phosphate-buffered saline (Yang et al., Proc. Natl. Acad. Sci. USA., 93:814, 1996) and resuspended (at […]) in 25 mM Hepes-buffered Hanks balanced salt solution (Bashor, Methods Enzymol., 58:119, 1979) containing 5 mg/ml bovine serum albumin. MAG-Fc (6 μg) was added to 100 μl of the same buffer containing 6 μg fluorescein isothiocyanate-labeled goat anti-human Fc (Jackson Immunoresearch, West Grove, Pa.) and incubated on ice for 1 h 45 min with frequent mixing. Cell suspension (100 μl containing 50,000 cells) was added to the premixed antibody solution and the mixture incubated on ice for 45 min. The cells were then centrifuged for 4 sec at 16,000×g and washed three times by resuspension in 200 μl of buffer with bovine serum albumin and centrifugation. The resulting cell pellet was resuspended in 100 μl buffer with bovine serum albumin and flow cytometry was performed on an Epics Profile II cytometer (Coulter Corp, Hialeah, Fla.).
NG108-15 cells, a mouse neuroblastoma/rat glioma hybrid, display many qualities of cholinergic neurons, including neurite outgrowth, synthesis, storage and release of acetylcholine, and functional synapse formation with muscle cells in vitro. Neurite outgrowth from NG108-15 cells is inhibited by MAG (McKerracher et al., Neuron, 13:805, 1994), an interaction which is reversed by pretreatment of the cells with neuraminidase (Schnaar et al., Ann. N.Y. Acad. Sci., 845:92, 1998). […] Binding was quantified by flow cytometry. […]

NG108-15 cells [2] = test: Uptake of mannosamine precursors and conversion to sialic acids (precursor pool, gangliosides, glycoproteins) in NG108-15 cells, HPLC; assay type: cell-based, mouse neuroblastoma/rat glioma hybrid; conditions: for ganglioside (lipid) sialic acid in the NeuGc form: NG108-15, 20 mM precursor (FIG. 3)
Experimental: (§1) Cells were harvested using hypertonic Ca^2+ - and Mg^2+ -free phosphate-buffered saline containing 1 mM EDTA, collected by centrifugation, and homogenized in ice-cold water using a Potter-Elvehjem glass/Teflon homogenizer. Methanol (2.6 volumes) was added, the suspension mixed and brought to ambient temperature, then chloroform (1.3 volumes, based on the original homogenate) was added and the suspension mixed vigorously. The suspension was centrifuged 30 min at 2,000×g. After collecting the supernatant, the pellet (containing precipitated proteins) was resuspended in water or concentrated ammonium hydroxide and a portion was used for protein assay (BCA, Pierce, Rockford, Ill.). The supernatant was partitioned by adjusting the chloroform-methanol-water ratio to 4:8:5.6 by addition of water, mixing thoroughly, and centrifuging as above. The upper phase was collected and a portion was subjected to reverse phase chromatography, using Sep-Pak C18 cartridges (Waters, Milford, Mass.), to isolate gangliosides (Schnaar, Methods Enzymol. 230:371, 1994).
(§2) To quantify and identify sialic acids, a portion of resolublized protein, organic/aqueous soluble pool, or reverse-phase purified gangliosides was evaporated to dryness in a 500-μl polypropylene tube and 20 μl of 0.1 M HCl/0.25 M NaCl was added. One Ampliwax bead (Perkin Elmer Corp, Foster City, Calif.) per reaction was added to block evaporation, and the sample hydrolyzed for 3 h at 80° C. Released sialic acids were analyzed by injecting an aliquot (1-10 μl) onto a Dionex high pressure liquid chromatography system (Dionex Corporation, Sunnyvale, Calif.) using a HPIC-AS6 column and a pulsed amperometric detector. Elution solutions were: A, 0.75 mM NaOH; B, 200 mM NaOH; and C, 400 mM sodium acetate in 50 mM NaOH. NeuAc and NeuPr were resolved by elution with 40% A, 50% B, 10% C for 15 min at 1 ml/min. NeuGc was resolved in separate injections using step gradient elution: 0-1.8 min, 18% A, 50% B, 32% C; 2-10 min, 40% B, 60% C. Sialic acids were identified by comparison of their elution time with those of standard NeuAc, NeuPr and NeuGc and were quantified in comparison to a standard curve of commercial NeuAc (for NeuAc and NeuPr) or NeuGc.
(§3) To confirm that the quantified peaks represented sialic acids, 10 μl of acid hydrolysates were treated with 1 μl of 1 M sodium phosphate (pH 7.2) and 10 μl of 0.1 M NaOH. Neutralized samples were incubated at 37° C. for 2 h with or without 0.9 U of N-acetylneuraminic acid aldolase (Sigma), 32 μM NADH and 0.1 μg lactate dehydrogenase. Sialic acid content in the ganglioside and glycoprotein fractions is expressed per mg of total cell protein. Precursor pool sialic acid (sialic acid plus CMP-sialic acid) was calculated by subtracting the ganglioside value from the organic/aqueous pool value, both expressed per mg of cell protein.
Sialic acid is biosynthesized from the precursor sugar N-acetylmannosamine (FIG. 2). In the present invention, sialic acids are converted on live neuronal cells from NeuAc, which is a key determinant for MAG binding, to NeuGc, which is non-permissive for MAG binding. A potential NeuGc precursor, N-glycolylmannosamine monoacetate (ManNGcMA, FIG. 1, R1 =H) was tested for its ability to generate altered sialic acids in neuronal and non-neuronal cells. N-propanoylmannosamine (ManNPr) and other N-acyl mannosamine derivatives have been used to modify glycoprotein associated sialic acids to the corresponding N-acylneuraminic acid. N-propanoyl-mannosamine (ManNPr), was used as a positive control. […] Cell pellets were fractioned into lipid associated, protein associated, and intracellular (lipid and cytoplasmic which may consist of oligosaccharide-bound, free, or CMP-activated sialic acid) sialic acids and hydrolyzed to release sialic acid. The hydrolyzed samples were then analyzed by HPLC to determine sialic acid content. […]

Jurkat cells = test: Uptake of mannosamine precursors and conversion to sialic acids in Jurkat cells, HPLC; assay type: cell-based, human; conditions: 48 h
Experimental: as §1, §2, §3
Sialic acid is biosynthesized from the precursor sugar N-acetylmannosamine (FIG. 2). In the present invention, sialic acids are converted on live neuronal cells from NeuAc, which is a key determinant for MAG binding, to NeuGc, which is non-permissive for MAG binding. A potential NeuGc precursor, N-glycolylmannosamine monoacetate (ManNGcMA, FIG. 1, R1 =H) was tested for its ability to generate altered sialic acids in neuronal and non-neuronal cells. N-propanoylmannosamine (ManNPr) and other N-acyl mannosamine derivatives have been used to modify glycoprotein associated sialic acids to the corresponding N-acylneuraminic acid. N-propanoyl-mannosamine (ManNPr), was used as a positive control. Jurkat human lymphoma cells and NG108-15 cells (rodent neuroblastoma/glioma hybrid cells) were incubated in 20 mM synthetic precursor or control precursor (N-acetylmannosamine, ManNAc) for 48 h, then harvested. Cell pellets were fractioned into lipid associated, protein associated, and intracellular (lipid and cytoplasmic which may consist of oligosaccharide-bound, free, or CMP-activated sialic acid) sialic acids and hydrolyzed to release sialic acid. […]

NG108-15 cells [3] = test: Cell growth and viability of precursor-treated NG108-15 cells; conditions: 1 mM
Experimental: Cell growth rates were determined in control cultures (.box-solid.), in cultures treated with 0.08 mM (.circle-solid.), 0.25 mM (.smallcircle.), or 1 mM (.quadrature.) ManNGcPA, and in cultures treated with 0.25 mM (.tangle-solidup.) or 1 mM (Δ) glucose pentaacetate.
NG108-15 cells were maintained in Dulbecco's modified Eagle's medium (high glucose formulation) containing 5% iron-enriched calf serum, 100 μM hypoxanthine, 16 μM thymidine, and 5 μM aminopterin. […] Both cell types were cultured at 37° C. in a humidified atmosphere of 90% air/10% CO2. For treatment with sialic acid precursors, mannosamine derivatives were diluted into the appropriate medium and filter sterilized. […] In experiments testing ManNGcPA, all cells (control and experimental) were grown in the presence of 0.5% (v/v) DMSO, the carrier for ManNGcPA.

[4] = NG108-15, 20 mM precursor, 48 h

For `O=C(CO)N[C@H]1[C@H]([C@H](O)[C@H](O)CO)OC(O)(C(=O)O)C[C@@H]1O` (stereo partly drawn) [NeuGc, N-glycolylneuraminic acid], the “support of MAG binding / recognition” value [1] is listed as “but not N-glycolylneuraminic acid (NeuGc) support MAG binding; also recorded: does not support MAG binding”.

With `CC(=O)N[C@@H]1C(OC(C)=O)O[C@H](COC(C)=O)[C@@H](OC(C)=O)[C@@H]1OC(C)=O` (stereo partly drawn) [ManNAc-tetraacetate, ManNAc tetra-O-acetate, reference compound] the “effect on MAG-Fc binding” value (MAG-Fc chimera; 1 mM, 96 h) was “no significant effect on binding”.

For `CC(=O)OC[C@H]1OC(OC(C)=O)[C@@H](NC=O)[C@@H](OC(C)=O)[C@@H]1OC(C)=O` (stereo partly drawn) [ManNFr-OAc, N-formylmannosaminne peracetate], the “glycolipid associated sialic acid as NeuFr” value (NG108-15 cells [2]; 48 hours) was 10% and the “levels of intracellular sialic acid in the form of NeuFr” value (NG108-15 cells [2]; FIG. 13) was “elevated levels of intracellular sialic acid in the form of N-formyneuraminic acid”.

In the case of `O=C(CO)N[C@@H]1C(O)O[C@H](CO)[C@@H](O)[C@@H]1O` (stereo partly drawn) [ManNGc, N-glycolylmannosamine], the “decrease in MAG-mediated recognition” value (MAG-Fc chimera; ng108-15 cells) is reported as 60%, the “intracellular NeuGc” value (Jurkat cells) is reported as “expected rise in intracellular NeuGc” and the “lipid sialic acid in the form of NeuGc” value (Jurkat cells) is reported as “Approximately 50%”. The “protein sialic acid in the form of NeuGc” value (Jurkat cells) was “Approximately 50%”, the “levels of NeuGc in any of the fractions analyzed” value (NG108-15 cells [2]; 5 mM) was “did not result in substantial levels of NeuGc” and the “levels of NeuGc (elevation)” value (NG108-15 cells [2]; 5 mM in the presence of DMSO, 48 h) was “did not result in elevated levels of NeuGc”. For the same compound, the “intracellular sialic acid in the form of NeuGc” value (NG108-15 cells [2]; 5 mM, 48 h) was 13.6%, the “protein associated sialic acid as NeuGc” value (NG108-15 cells [2]; 5 mM, 48 h) was 9.5% and the “total lipid associated sialic acid as NeuGc” value (NG108-15 cells [2]; 5.0 mM, 48 h) was 5%. The “ganglioside (lipid) sialic acid in the NeuGc form” value (NG108-15 cells [2]; 48 h) was about 70%, the “intracellular NeuGc” value (NG108-15 cells [2]; NG108-15 compared with Jurkat, 48 h) was “substantially lower levels” and the “glycoconjugate sialic acid in the form of NeuGc” value (NG108-15 cells [2]; in MAG recognition experiment) was 60%.

In the case of `CC(=O)OCC(=O)N[C@@H]1C(O)O[C@H](CO)[C@@H](O)[C@@H]1O` (stereo partly drawn) [ManNGcMA, N-Glycolylmannosamine monoacetate], the “sialic acid precursor pool as NeuGc” value (Jurkat cells; 20 mM precursor) is reported as “nearly all NeuGc”, the “total sialic acid precursor pool size” value (Jurkat cells; 20 mM precursor) is reported as “increase in total sialic acid precursor pool size (comparable to treatment with ManNPr)” and the “incorporation of NeuGc into gangliosides, relative to 1 mM ManNGcPA” value (NG108-15 cells [2]; 5 mM, 48 h) is reported as “much less”. The “incorporation of NeuGc into glycoproteins, relative to 1 mM ManNGcPA” value (NG108-15 cells [2]; 5 mM, 48 h) was “much less”, the “conversion of glycoprotein sialic acids to the NeuGc form” value (NG108-15 cells [2]; 20 mM precursor, 48 h) was “≈ 30%” and the “decrease in total glycoprotein sialic acid” value (NG108-15 cells [2]; 20 mM precursor, 48 h) was “≈ 40%”. For the same compound, the “sialic acid precursor pool in the NeuGc form” value (NG108-15 cells [2]; 20 mM precursor, 48 h) was “≈ 70%”, the “sialic acid precursor pool size compared to untreated control” value (NG108-15 cells [2]; 20 mM precursor, 48 h) was “markedly smaller sialic acid precursor pool” and the “sialic acid precursor pool size” value (NG108-15 cells [2]; 0.1 or 1.0 mM ManNGcPA, or 5 mM ManNGcMA, 48 h) was “none of these treatments significantly altered the sialic acid precursor pool size”. For the same compound, the “ganglioside (lipid) sialic acid in the NeuGc form” value (NG108-15 cells [2]; 48 h) was “≈ 30%” and the “size of the ganglioside pool” value (NG108-15 cells [2]; [4]) was “remained relatively constant”.

For `CC(=O)N[C@@H]1C(O)O[C@H](CO)[C@@H](O)[C@@H]1O` (stereo partly drawn) [ManNAc, N-acetylmannosamine, reference compound], the “levels of intracellular sialic acid” value (Jurkat cells; 20 mM precursor) was “high levels”, the “increase in intracellular sialic acid (precursor pool)” value (NG108-15 cells [2]; 20 mM precursor, 48 h) was at most 14 fold and the “increase in total glycoprotein sialic acid” value (NG108-15 cells [2]; 20 mM precursor, 48 h) was “≈ 2 fold”. The “levels of intracellular sialic acid” value (NG108-15 cells [2]; [4]) was “high levels”.

With glucose pentaacetate the cell growth (NG108-15 cells [3]) was “more profound decreases in cell growth and viability than the ManNGcPA-treated cells” and the “cell viability (in words)” value (NG108-15 cells [3]) was “more profound decreases in cell growth and viability than the ManNGcPA-treated cells”.
